Laboratory results from patent US20200268728A1, “DRUG TARGETING CANCER STEM CELL” (Sumitomo Dainippon Pharma Co., Ltd., priority 2016, published 2020).

How the values were obtained:
HCT-116 cells = assay: Test for inhibiting sphere-forming ability of cancer cells (Test Example 1); type: cell-based, human; details: Homo sapiens, 96 h, non-adherent serum-free sphere culture, 4 days, CellTiter-Glo, read-out: IC50 (μmol/L), Sphere IC50 value, concentration for 50% inhibition of cell proliferation
Method: The reliable methods established for measuring the self-renewal ability of cells which is one of the CSC's properties include a method for measuring the sphere-forming ability of cancer cells in non-adherent condition in the absence of serum (Cancer Res 65, 5506-5511 (2005)). HCT-116 cells were available from the American Type Culture Collection (ATCC). HCT-116 cells were cultured at 37° C. and 5% CO2 using the McCoy's 5a medium containing 10% fetal bovine serum (FBS), 100 U/ml penicillin, and 100 μg/ml streptomycin. HCT-116 cells were seeded in a 384 Well Black Clear Bottom Ultra-Low Attachment Microplate (Corning Cat. No. 3827) in an amount of 350-800 cells/well using the DMEM/F12 medium containing 2% B27 supplement (GIBCO), 20 ng/mL epidermal growth factor (EGF) (peprotech), 10 ng/mL basic fibroblast growth factor (bFGF) (peprotech), 5 μg/mL insulin (Sigma), and 1% penicillin/streptomycin. The test compounds were added into each well to adjust the final concentration of DMSO to 0.1%, and the cells were cultured for 4 days. The number of viable cells in each well was then measured with CellTiter-Glo® Luminescent Cell Viability Assay (Promega) to calculate the concentration of each test compound for 50% inhibition of cell proliferation (Sphere IC50 value; μmol/L).
The experiment of Test Example 1 was performed for the compounds of each Example.

LS411N = assay: Sphere-forming ability of cultured cancer cell lines (Test Example 10); type: cell-based; details: Homo sapiens, LS-411N, 96 h; LS411N colon cancer cell line, 4 days
Method: (§1) The colon cancer cell lines SW480, DLD1, HCT15, HT29, SW948, LS174T, LS411N, SW620, LoVo, HCT116, Colo205, and Hs698T, the pancreatic cancer cell lines MiaPaca2, HPAFII, Capan2, and Panc1, the head and neck cancer cell line FaDu, the breast cancer cell lines HCC1954 and T47D, the bladder cancer cell line SW780, the liver cancer cell line HepG2, the neuroblastoma cell lines U87MG and U251, the lung cancer cell lines H460, H1437, and A549, the prostate cancer cell lines DU145 and PC3, the soft tissue tumor cell line HT1080, the testicular cancer cell line NTERA2, and the ovarian cancer cell line SKOV3 was suspended in the sphere formation medium (DMEM-F12 medium of Test Example 3 was used), and seeded in a 384-well plate with Ultra-Low Attachment surface (Corning) in an amount of 5×10^3-10×10^3 cells/well. The compound of Example 24 was then added into each well to adjust the final concentration to 10-10000 nmol/L. The plate was cultured at 37° C. and 5% carbon dioxide in an incubator for 4 days. After the culture, CellTiterGlo (Promega) was added into all of the wells, and the plate was allowed to stand at room temperature for 10 minutes to measure the intensity of luminescence of each well. The concentrations of each test compound for 50% inhibition of cell proliferation to the cell lines (Sphere IC50 value; μmol/L) was calculated from the measured intensity of luminescence. When each gene mutation in Table is reported, the mutation is represented by “+” (gene mutation information is cited from the ATCC website (https://www.atcc.org/en/Products/Cells_and_Microorganisms/Cell_Lines/Cell_lines_by_genetic_mutation.aspx), Cancer Cell Line Encyclopedia (https://portals.broadinstitute.org/ccle_legacy/home), Proc. Natl. Acad. Sci. USA 94 (1997) 10330-10334).

NCI-H460 = assay: as above; type: cell-based; details: Homo sapiens, 96 h; NCI-H460 lung cancer cell line, 4 days
Method: as §1

SK-OV-3 = assay: as above; type: cell-based; details: Homo sapiens, 96 h; SK-OV-3 ovarian cancer cell line, 4 days
Method: as §1

U-251 = assay: as above; type: cell-based; details: Homo sapiens, 96 h; U-251 neuroblastoma cell line, 4 days
Method: as §1

IC50 (HCT-116 cells): < 0.01 µmol/L
IC50 (LS411N): 19 nM
IC50 (NCI-H460): 883 nM
IC50 (SK-OV-3): > 10000 nM
IC50 (U-251): > 10000 nM
SMILES: O=C(Nc1cn(Cc2cc(F)c(F)c(F)c2)cn1)c1cnc(CO)c(C(F)F)c1 [Example 24, 5-(difluoromethyl)-6-(hydroxymethyl)-N-[1-(3,4,5-trifluorobenzyl)-1H-imidazol-4-yl]nicotinamide]
